Measurements reported in US5541168A, “Substituted 2-(phosphinyloxymethyl)-1,2,5-thiadiazolidin-3-one 1,1-dioxides and compositions and method of use thereof” (Sterling Winthrop Inc., priority 1994, dated 1996).
Read-outs that look alike come from different tables or passages of the source.

Target: T1, human leukocyte elastase (Homo sapiens, UniProt P08246)
T1 sequence (P08246 30-247 limits assumed): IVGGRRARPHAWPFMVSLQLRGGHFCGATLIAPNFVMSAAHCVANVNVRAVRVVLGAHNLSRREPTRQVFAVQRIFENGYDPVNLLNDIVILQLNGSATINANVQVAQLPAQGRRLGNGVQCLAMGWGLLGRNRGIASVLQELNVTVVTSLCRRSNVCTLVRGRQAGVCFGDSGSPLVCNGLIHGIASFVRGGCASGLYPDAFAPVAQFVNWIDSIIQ
Experiment: human leukocyte elastase inhibitory activity (MeOSuc-Ala-Ala-Pro-Val-pNA substrate, absorbance progress curves)
Assay type: biochemical
Experimental: The test compound (inhibitor) is dissolved in DMSO in a vial to produce an inhibitor stock solution which has a concentration in the range of 200-1000 μM. The inhibitor stock solution is diluted (1:4, 1:16 and 1:64) into assay vials (vials 1, 2 and 3 respectively) containing 2.4 mL of buffer solution (50 mM N-[2-hydroxyethyl]piperazine-N'-[2-ethanesulfonic acid]/NaOH, 500 mM NaCl, pH 7.8 at 25° C.) and DMSO is added so that the total volume in each vial is 3.2 mL. 70 μL, 50 μL, 35 μL and 25 μL of inhibitor from assay vial 1 is placed into the first four wells of a 96-well microtiter plate and each well is made up to 90 μL total volume with the addition of a 25% DMSO/buffer solution. The inhibitor from assay vials 2 and 3 is processed in a similar manner and placed in wells 5-12 respectively to afford a total of 12 different inhibitor concentrations. Four wells (wells 13-16) containing 90 μL of the 25% DMSO/buffer solution but no inhibitor are also run simultaneously with the inhibited wells as a control. 150 μL of substrate solution (prepared by the addition of 500 μL of the human leukocyte elastase (HLE) substrate MeOSuc-Ala-Ala-Pro-Val-pNA (18.7 mM in DMSO) to 19.5 mL of buffer solution) is then added simultaneously into each of the 16 wells and the solution in each well was thoroughly mixed.
The 96-well microtiter plate is placed into a Microplate Reader #89815A spectrophotometer and 110 μL of the enzyme solution (prepared as follows: a mixture of 20 mL of buffer solution and 20 mg of bovine serum albumen is gently vortexed in a scintillation vial and 5 μL HLE stock solution (1 mg/mL dissolved in deionized water) is added) is added simultaneously to each of the 16 wells. Each of the solutions in the wells is throughly mixed and then the time-dependent absorbance data is collected at an absorbance of 410 nm until the assay is complete. It should be noted that although this assay method can be done manually, it is preferred to perform the assay robotically using a Hewlett Packard MicroAssay System Robot.
A plot of the absorbance versus time data thus obtained affords progress curves the final slope of which is equal to the final steady-state velocities (VF). Using the program ENZFITTER (Elsevier software), the progress curves for the four control assays ([I]=0) are fit by linear regression to yield the enzyme reaction velocity values in the absences of inhibitor (Vo) which are averaged to produce a single fixed value. The inhibition constant Ki (nM) is then obtained from a plot of [formula] which affords a linear plot wherein: [formula] and [S] is the concentration of the substrate and Km is the Michaelis constant.
Table V summarizes the results obtained from the testing of representative compounds of the invention for human leukocyte elastase inhibitory activity.

| Compound | Ki [nM] | Ki (human leukocyte elastase, substrate MeOSuc-Ala-Ala-Pro-Val-pNA, pH 7.8, 25° C. buffer, read-out: Ki) [nM] |
| --- | --- | --- |
| CCCC1C(=O)N(COP(=O)(OCC)OCC)S(=O)(=O)N1C (centres unmarked) [1(i), 2-(diethoxyphosphinyloxymethyl)-4-propyl-5-methyl-1,2,5-thiadiazolidin-3-one 1,1-dioxide] | 2 |  |
| CCOP(=O)(OCC)OCN1C(=O)C(C(C)C)N(C)S1(=O)=O (centres unmarked) [2(i), 2-(diethoxyphosphinyloxymethyl)-4-isopropyl-5-methyl-1,2,5-thiadiazolidin-3-one 1,1-dioxide] | 680 |  |
| CCCC1NS(=O)(=O)N(COP(=O)(OCC)OCC)C1=O (centres unmarked) [3(f), 2-(diethoxyphosphinyloxymethyl)-4-propyl-1,2,5-thiadiazolidin-3-one 1,1-dioxide] | 25 |  |
| CC(C)CCC1C(=O)N(COP(=O)(OCc2ccccc2)OCc2ccccc2)S(=O)(=O)N1C (centres unmarked) [4(j), 2-(dibenzyloxyphosphinyloxymethyl)-4-(3-methylbutyl)-5-methyl-1,2,5-thiadiazolidin-3-one 1,1-dioxide] |  | 1.5 |
| CCOP(=O)(OCC)OCN1C(=O)C2CCCCN2S1(=O)=O (centres unmarked) [17(f), 2-(diethoxyphosphinyloxymethyl)-1,2,5-thiadiazolo[2,3-a]3,3a,4,5,6,7-hexahydropyridine-3-one 1,1-dioxide] | 500 |  |
